Results on 14 compounds are retold here after patent publication US10428081B2, “EGFR inhibitor, preparation method and use thereof” (Shanghai Hansoh Biomedical Co., Ltd., priority 2014, dated 2019).

Assay [1] concerns the target exon 20 T790M mutant-type EGFR enzyme (Homo sapiens, UniProt P00533, T790M). The assay is described as follows: Enzymologic experiment of T790M mutant-type EGFR (TR-FRET). It counts as biochemical. The conditions noted are these: for IC50: T790M EGFR enzyme, TR-FRET, ATP 1 to 10 uM; for Selectivity of wild-type/mutant-type: ratio WT IC50 / T790M IC50, enzyme. A digest of the protocol:
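Compound dilutions preincubated 10 min at room temperature; reaction ended with EDTA, then labeled antibody added for 1 h at room temperature. Inhibition rates derived from TR-FRET fluorescence signal, and IC50 obtained by curve fitting across concentrations.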

The next assay has as its target wild-type EGFR enzyme (Homo sapiens, UniProt P00533). The assay is described as follows: Enzymologic experiment of wild-type (WT) EGFR (TR-FRET). As to conditions: ATP 0.1 to 5 uM. It counts as biochemical. A digest of the protocol: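 Wild-type EGFR (0.1 to 1 nM final) preincubated with serially diluted compound for 10 minutes at room temperature; reaction stopped with EDTA, then labelled antibody added for 1 hour at room temperature. TR-FRET signal converted to inhibition rates; IC50 from curve fitting across concentrations.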
Background: Time-resolved FRET reads energy transfer from a long-lived donor to a nearby acceptor.

The subject of the next assay is NCI-H1975 cells. Briefly: Inhibition of NCI-H1975 cell proliferation (CellTiter-Glo). It counts as cell-based. As to conditions: for IC50: Homo sapiens, NCI-H1975, 72 h, NCI-H1975 cell proliferation, 72 hours, CellTiter-Glo, read-out: EGFR IC50 (nM) H1975; for Selectivity of wild-type/mutant-type: ratio A431 IC50 / H1975 IC50, cells.
For the next assay, the system named is A431 cells. The assay is described as follows: Inhibition of A431 cell proliferation (CellTiter-Glo). It counts as cell-based. The conditions noted are these: Homo sapiens, A-431, 72 h, read-out: EGFR IC50 (nM) A431. As for the experimental part:
4. Experiment on the Inhibition of A431 Cell Proliferation
In this experiment, the inhibitory effect of the compounds on A431 cell proliferation was tested by a CellTiter-Glo method, and the half maximal inhibitory concentration (IC50) of the compounds on the activity of cell proliferation was determined.
The culture plate was incubated in the incubator for 16 to 24 hours (37° C., 5% CO2).
2) Different concentrations of the test compound in a gradient dilution were added to the cells in the culture plate. The culture plate was incubated in an incubator for 72 hours (37° C., 5% CO2).
3) 50 to 100 μL of CellTiter-Glo reagent was added to each well. Then the culture plate was shaken for 10 minutes, and left to stand at room temperature for 10 minutes.
4) The chemiluminescence signal values of each plate were determined by a microplate reader.
5) The inhibition rates were calculated according to the chemiluminescence signal values. 6) The IC50 of the compound was obtained by curve fitting according to the inhibition rates at different concentrations.
On the technique in general: Cellular ATP, detected with luciferase, serves as a proxy for viable cell number.

One may read the IC50 as the point on the concentration scale where inhibition reaches its midpoint.

Chain of wild-type EGFR enzyme (P00533 25-1210): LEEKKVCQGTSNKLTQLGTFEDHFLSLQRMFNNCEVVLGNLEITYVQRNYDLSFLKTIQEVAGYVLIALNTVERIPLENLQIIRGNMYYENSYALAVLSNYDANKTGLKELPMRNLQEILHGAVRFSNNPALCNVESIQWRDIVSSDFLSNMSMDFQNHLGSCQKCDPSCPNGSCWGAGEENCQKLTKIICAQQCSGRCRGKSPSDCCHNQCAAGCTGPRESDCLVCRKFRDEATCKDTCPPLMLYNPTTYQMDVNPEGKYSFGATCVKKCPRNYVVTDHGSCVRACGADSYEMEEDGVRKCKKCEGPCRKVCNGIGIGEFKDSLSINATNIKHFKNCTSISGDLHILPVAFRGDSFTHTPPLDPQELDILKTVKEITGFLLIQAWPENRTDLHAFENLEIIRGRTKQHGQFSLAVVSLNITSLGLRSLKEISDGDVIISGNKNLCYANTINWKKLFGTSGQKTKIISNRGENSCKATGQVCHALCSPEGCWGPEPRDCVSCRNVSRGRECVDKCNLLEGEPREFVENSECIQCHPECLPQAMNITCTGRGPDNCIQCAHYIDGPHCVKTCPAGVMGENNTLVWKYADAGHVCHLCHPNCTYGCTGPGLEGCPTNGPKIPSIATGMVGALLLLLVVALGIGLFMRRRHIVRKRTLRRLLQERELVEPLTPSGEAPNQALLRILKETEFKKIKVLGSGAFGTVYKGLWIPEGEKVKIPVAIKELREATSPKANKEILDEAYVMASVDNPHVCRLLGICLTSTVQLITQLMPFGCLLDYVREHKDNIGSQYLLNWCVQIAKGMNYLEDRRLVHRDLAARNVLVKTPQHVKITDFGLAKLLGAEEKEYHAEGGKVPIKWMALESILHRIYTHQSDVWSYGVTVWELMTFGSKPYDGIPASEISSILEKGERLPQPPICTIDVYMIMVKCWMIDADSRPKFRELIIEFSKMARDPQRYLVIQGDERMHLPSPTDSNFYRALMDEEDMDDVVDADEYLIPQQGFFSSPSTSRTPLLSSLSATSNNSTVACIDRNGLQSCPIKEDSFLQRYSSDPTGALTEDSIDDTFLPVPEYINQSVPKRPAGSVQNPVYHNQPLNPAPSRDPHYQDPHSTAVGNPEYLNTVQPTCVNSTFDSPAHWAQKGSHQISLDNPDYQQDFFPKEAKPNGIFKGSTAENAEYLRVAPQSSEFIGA
Chain of exon 20 T790M mutant-type EGFR enzyme (P00533 25-1210 T790M): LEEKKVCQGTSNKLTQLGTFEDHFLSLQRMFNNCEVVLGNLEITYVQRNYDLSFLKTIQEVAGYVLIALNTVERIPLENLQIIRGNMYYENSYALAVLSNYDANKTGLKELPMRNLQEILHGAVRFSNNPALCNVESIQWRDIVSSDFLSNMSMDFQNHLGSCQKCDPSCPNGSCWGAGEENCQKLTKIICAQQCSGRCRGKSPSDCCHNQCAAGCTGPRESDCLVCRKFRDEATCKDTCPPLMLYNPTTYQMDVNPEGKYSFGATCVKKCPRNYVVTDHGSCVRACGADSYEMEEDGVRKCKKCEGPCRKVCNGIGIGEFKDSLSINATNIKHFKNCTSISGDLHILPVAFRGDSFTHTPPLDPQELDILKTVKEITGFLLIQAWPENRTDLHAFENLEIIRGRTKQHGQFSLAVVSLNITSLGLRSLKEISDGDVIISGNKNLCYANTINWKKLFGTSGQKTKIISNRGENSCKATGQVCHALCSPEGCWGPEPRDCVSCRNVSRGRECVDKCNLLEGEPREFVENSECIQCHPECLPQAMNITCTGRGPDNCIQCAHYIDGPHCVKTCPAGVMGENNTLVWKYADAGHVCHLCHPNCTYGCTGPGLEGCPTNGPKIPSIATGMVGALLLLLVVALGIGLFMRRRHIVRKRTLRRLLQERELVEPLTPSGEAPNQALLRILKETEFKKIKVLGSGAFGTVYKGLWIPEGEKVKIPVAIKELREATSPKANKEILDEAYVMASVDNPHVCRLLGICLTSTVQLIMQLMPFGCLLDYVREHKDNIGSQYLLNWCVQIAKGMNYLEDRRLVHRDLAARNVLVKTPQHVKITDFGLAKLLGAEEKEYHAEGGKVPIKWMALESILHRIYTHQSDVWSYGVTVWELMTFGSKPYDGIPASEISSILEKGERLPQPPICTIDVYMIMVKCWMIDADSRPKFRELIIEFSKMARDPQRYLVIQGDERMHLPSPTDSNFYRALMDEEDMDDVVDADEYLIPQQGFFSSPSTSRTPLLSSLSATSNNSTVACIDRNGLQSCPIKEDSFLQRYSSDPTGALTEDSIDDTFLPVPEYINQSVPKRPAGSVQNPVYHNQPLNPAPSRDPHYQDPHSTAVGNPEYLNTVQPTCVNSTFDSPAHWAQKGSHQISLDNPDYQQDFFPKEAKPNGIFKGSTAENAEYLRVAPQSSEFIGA

For `C=CC(=O)Nc1cc(Nc2ncc(C(F)(F)F)c(-n3ncc4cc(OC)ccc43)n2)c(OC)cc1N(C)CCN(C)C` [Example 49, N-(2-((2-(dimethylamino)ethyl)(methyl)amino)-4-methoxy-5-((4-(5-methoxy-1H-indazol-1-yl)-5-(trifluoromethyl)pyrimidin-2-yl)amino)phenyl)acrylamide], the half-inhibitory concentration (IC50) was 0.17 nM in assay [1], 6.3 nM against wild-type EGFR enzyme, 1.93 nM in the assay with NCI-H1975 cells and 128 nM with A431 cells. For the same compound, the Selectivity of wild-type/mutant-type came to 37.06 in assay [1] and 66.48 with NCI-H1975 cells.
On to `C=CC(=O)Nc1cc(Nc2nccc(-n3ncc4cc(C#N)ccc43)n2)c(OC)cc1N(C)CCN(C)C` [Example 50, N-(5-((4-(5-cyano-1H-indazol-1-yl)pyrimidin-2-yl)amino)-2-((2-(dimethylamino)ethyl)(methyl)amino)-4-methoxyphenyl)acrylamide], for which the IC50 in assay [1] amounted to 0.66 nM; against wild-type EGFR enzyme, 6.39 nM; in the assay on NCI-H1975 cells, 6.14 nM; in the assay on A431 cells, 503 nM. For the same compound, the results for the Selectivity of wild-type/mutant-type (in assay [1]; with NCI-H1975 cells) were 9.68 and 81.87, respectively.
Take `C=CC(=O)Nc1cc(Nc2ncc(Cl)c(-n3ncc4cc(C#N)ccc43)n2)c(OC)cc1N(C)CCN(C)C` [Example 51, N-(5-((5-chloro-4-(5-cyano-1H-indazol-1-yl)pyrimidin-2-yl)amino)-2-((2-(dimethylamino)ethyl)(methyl)amino)-4-methoxyphenyl)acrylamide]: the IC50 worked out at 0.53 nM in assay [1], 14.5 nM at wild-type EGFR enzyme, 5.06 nM in the assay with NCI-H1975 cells and 394 nM in the assay with A431 cells. The Selectivity of wild-type/mutant-type amounted to 27.56 in assay [1] and 77.94 in the assay on NCI-H1975 cells.
On to `C=CC(=O)Nc1cc(Nc2nccc(-n3nc(C)c4cc(OC)c(OC)cc43)n2)c(OC)cc1N(C)CCN(C)C` [Example 53, N-(5-((4-(5,6-dimethoxy-3-methyl-1H-indazol-1-yl)pyrimidin-2-yl)amino)-2-((2-(dimethylamino)ethyl)(methyl)amino)-4-methoxyphenyl)acrylamide], for which the IC50 was found to be 2.53 nM in assay [1], 34.1 nM against wild-type EGFR enzyme, 20 nM in the assay on NCI-H1975 cells and 628 nM with A431 cells. The Selectivity of wild-type/mutant-type is 13.50 in assay [1] and 31.38 in the assay with NCI-H1975 cells.
In the case of `C=CC(=O)Nc1cc(Nc2nccc(-n3nc(C)c4ccc(OC)cc43)n2)c(OC)cc1N(C)CCN(C)C` [Example 54, N-(2-((2-(dimethylamino)ethyl)(methyl)amino)-4-methoxy-5-((4-(6-methoxy-3-methyl-1H-indazol-1-yl)pyrimidin-2-yl)amino)phenyl)acrylamide], the 50% inhibitory concentration (IC50) is 0.36 nM in assay [1], 2.21 nM at wild-type EGFR enzyme, 2.75 nM with NCI-H1975 cells and 71.2 nM in the assay with A431 cells. Also, the results for the Selectivity of wild-type/mutant-type (in assay [1]; in the assay on NCI-H1975 cells) were 6.14 and 25.90, respectively.
With `C=CC(=O)Nc1cc(Nc2nccc(-n3nc(C)c4cc(C#N)ccc43)n2)c(OC)cc1N(C)CCN(C)C` [Example 56, N-(5-((4-(5-cyano-3-methyl-1H-indazol-1-yl)pyrimidin-2-yl)amino)-2-((2-(dimethylamino)ethyl)(methyl)amino)-4-methoxyphenyl)acrylamide], the half-inhibitory concentration (IC50) in assay [1] is 1.54 nM; at wild-type EGFR enzyme, 16.3 nM; in the assay with NCI-H1975 cells it was 7.08 nM; in the assay with A431 cells, 688 nM. In addition, the Selectivity of wild-type/mutant-type was 10.56 in assay [1] and 97.25 with NCI-H1975 cells.
Take `C=CC(=O)Nc1cc(Nc2nccc(-n3cnc4ccc(OC)cc43)n2)c(OC)cc1N(C)CCN(C)C` [Example 60, N-(2-((2-(dimethylamino)ethyl)(methyl)amino)-4-methoxy-5-((4-(6-methoxy-1H-benzo[d]imidazol-1-yl)pyrimidin-2-yl)amino)phenyl)acrylamide]: the IC50 in assay [1] was found to be 0.33 nM; at wild-type EGFR enzyme, 2.03 nM; in the assay with NCI-H1975 cells, 2.94 nM; with A431 cells it was 149 nM. Also, the Selectivity of wild-type/mutant-type is 6.16 in assay [1] and 50.82 in the assay on NCI-H1975 cells.
Regarding `C=CC(=O)Nc1cc(Nc2ncc(Cl)c(-n3cnc4cc(OC)ccc43)n2)c(OC)cc1N(C)CCN(C)C` [Example 63, N-(5-((5-chloro-4-(5-methoxy-1H-benzo[d]imidazol-1-yl)pyrimidin-2-yl)amino)-2-((2-(dimethylamino)ethyl)(methyl)amino)-4-methoxyphenyl)acrylamide], the half-inhibitory concentration (IC50) in assay [1] is 0.36 nM; on wild-type EGFR enzyme, 14.9 nM; in the assay on NCI-H1975 cells, 1.87 nM; in the assay with A431 cells, 71 nM. For the same compound, the figures for the Selectivity of wild-type/mutant-type (in assay [1]; in the assay on NCI-H1975 cells) were 41.53 and 37.97, respectively.
As for `C=CC(=O)Nc1cc(Nc2ncc(C(F)(F)F)c(-n3cnc4cc(OC)ccc43)n2)c(OC)cc1N(C)CCN(C)C` [Example 67, N-(2-((2-(dimethylamino)ethyl)(methyl)amino)-4-methoxy-5-((4-(5-methoxy-1H-benzo[d]imidazol-1-yl)-5-(trifluoromethyl)pyrimidin-2-yl)amino)phenyl)acrylamide], the IC50 in assay [1] is 1.63 nM; against wild-type EGFR enzyme it was 378 nM; in the assay with NCI-H1975 cells, 3.73 nM; in the assay with A431 cells it was 321 nM. Moreover, the values for the Selectivity of wild-type/mutant-type (in assay [1]; in the assay on NCI-H1975 cells) were 231.9 and 85.95, respectively.
Consider `C=CC(=O)Nc1cc(Nc2nccc(-c3cn(C)c4ccc(F)c(F)c34)n2)c(OC)cc1N(C)CCN(C)C` [Example 90, N-(5-((4-(4,5-difluoro-1-methyl-1H-indol-3-yl)pyrimidin-2-yl)amino)-2-((2-(dimethylamino)ethyl)(methyl)amino)-4-methoxyphenyl)acrylamide], for which the 50% inhibitory concentration (IC50) is 1.14 nM in assay [1], 4.91 nM against wild-type EGFR enzyme, 6.32 nM in the assay with NCI-H1975 cells and 106 nM in the assay on A431 cells. Also, the values for the Selectivity of wild-type/mutant-type (in assay [1]; in the assay with NCI-H1975 cells) were 4.31 and 16.72, respectively.
In the case of `C=CC(=O)Nc1cc(Nc2nccc(-c3cn(C)c4c(C5CC5)cccc34)n2)c(OC)cc1N(C)CCN(C)C` [Example 91, N-(5-((4-(7-cyclopropyl-1-methyl-1H-indol-3-yl)pyrimidin-2-yl)amino)-2-((2-(dimethylamino)ethyl)(methyl)amino)-4-methoxyphenyl)acrylamide], the concentration for half-maximal inhibition (IC50) in assay [1] worked out at 2.25 nM; on wild-type EGFR enzyme it was 14.7 nM; with NCI-H1975 cells, 25.9 nM; with A431 cells, 558 nM. For the same compound, the Selectivity of wild-type/mutant-type in assay [1] stood at 6.54; with NCI-H1975 cells, 21.49.
In the case of `C=CC(=O)Nc1cc(Nc2nccc(-c3c[nH]c4c(C5CC5)cccc34)n2)c(OC)cc1N(C)CCN(C)C` [Example 92, N-(5-((4-(7-cyclopropyl-1H-indol-3-yl)pyrimidin-2-yl)amino)-2-((2-(dimethylamino)ethyl)(methyl)amino)-4-methoxyphenyl)acrylamide], the 50% inhibitory concentration (IC50) is 0.16 nM in assay [1], 0.4 nM against wild-type EGFR enzyme, 1.95 nM with NCI-H1975 cells and 9.22 nM in the assay with A431 cells. For the same compound, the results for the Selectivity of wild-type/mutant-type (in assay [1]; in the assay with NCI-H1975 cells) were 2.5 and 4.73, respectively.
`C=CC(=O)Nc1cc(Nc2nccc(-c3c[nH]c4c(OC)cccc34)n2)c(OC)cc1N(C)CCN(C)C` [Example 94, N-(2-((2-(dimethylamino)ethyl)(methyl)amino)-4-methoxy-5-((4-(7-methoxy-1H-indol-3-yl)pyrimidin-2-yl)amino)phenyl)acrylamide]: the IC50 came out at 0.71 nM in assay [1], 1.26 nM against wild-type EGFR enzyme, 3.91 nM in the assay with NCI-H1975 cells and 38.8 nM with A431 cells. For the same compound, the Selectivity of wild-type/mutant-type in assay [1] amounted to 1.771; in the assay with NCI-H1975 cells, 9.93.
As for `C=CC(=O)Nc1cc(Nc2nccc(-c3cn(C)c4cc(C=C)ccc34)n2)c(OC)cc1N(C)CCN(C)C` [Example 96, N-(2-((2-(dimethylamino)ethyl)(methyl)amino)-4-methoxy-5-((4-(1-methyl-6-vinyl-1H-indol-3-yl)pyrimidin-2-yl)amino)phenyl)acrylamide], the concentration for half-maximal inhibition (IC50) in assay [1] was 1.57 nM; on wild-type EGFR enzyme, 8.9 nM; in the assay with NCI-H1975 cells it was 17.5 nM; in the assay on A431 cells, 324 nM. The Selectivity of wild-type/mutant-type in assay [1] is 5.67; in the assay with NCI-H1975 cells, 18.51.
